What all share (type): cell-based, rat
One assay relates to CREB gene expression. The assay is described as follows: CREB gene expression by real-time PCR. Particulars: 25 µM, 24 or 48 h. As to the method: (§1) Total RNA was extracted using an ABI 6100 Nucleic Acid PrepStation according to the manufacturer’s protocol (Applied Biosystems Inc., Foster City, CA, USA). Total RNA from cells was isolated and stored at −80 °C. The quality of isolated RNA was estimated by the ratio A260/A280 and was in the range of 1.9–2.1. RNA integrity was evaluated by agarose gel electrophoresis according to MIQE guidelines using the “bleach gel” method. RNA concentrations were determined from the A260. One microgram of total RNA was reverse transcribed using Applied Biosystems High-Capacity cDNA Archive Kit.
(§2) To assess relative gene expression in neurons, quantitative real-time RT-PCR analysis was performed with an Applied Biosystems Prism 7500 Fast Sequence Detection System using TaqMan® universal PCR master mix according to the manufacturer’s specifications. […] Levels of RNA expression were determined using the 7500 Fast System SDS software version 1.3.1 (Applied Biosystems) according to the 2^−ΔΔCt method. […] The results from three independent repeat assays, performed in different plates each using different cDNA’s from the cultures analyzed, were averaged to produce a single mean quantity value for each mRNA.

The next assay deals with mGluR5. Nature of the assay: Extracellular immunostaining of mGluR5 in non-permeabilized neurons. Particulars: 25 µM, 24 h, whole-cell immunostaining. The protocol:
The quantitative analysis of the levels of Group I mGluR and mGluR2,3 at the plasma membrane was performed with extracellular targeted polyclonal antibodies (mGluR1, mGluR5 and mGluR2,3, Alomone Labs, Jerusalem, Israel), as previously described with minor modifications. Briefly, after 2 weeks in culture, the culture medium was removed and cells washed with Locke Buffer (LB, pH 7.4). Cells were then fixed with 4% paraformaldehyde for 10 min at room temperature and washed with three 10-min intervals with LB.
Nonspecific staining was suppressed by blocking with 3% normal goat serum in LB for 60 min. […]
To evaluate the degree of fluorescence intensity in cortical neurons, fluorescence was measured to estimate the protein expression in the different experimental conditions analyzed. Images (448.6 µm × 335.08 µm) obtained with a digital camera (Leica DFC350FX R2), attached to a Leica DMI6000B (Leica Microsystems, Wetzlar, Germany) fluorescent microscope, were used for quantification (20x HCX PL FLUOTAR 0.4 dry objective). […] Fluorescence intensity was estimated by averaging mean grey values. […] Data were normalized to the total number of cells in the analyzed fields. The mean fluorescence background, calculated in the unstained regions between neurons, was subtracted from the fluorescence intensity of each data point. […]

The subject of assay [1] is mGluR5 (GRM5) gene expression. The assay is described as follows: mGluR5 gene expression by real-time PCR. Particulars: 25 µM, 24 or 48 h, vs control neurons. As to the method: as §1, §2
The subject of the next assay is adenylyl cyclase (AC). Nature of the assay: Adenylyl cyclase activity, basal and forskolin-stimulated. As to the method: AC activity was determined as previously reported by Murphy with minor modifications. Briefly, control or treated cells were pre-incubated in serum-free DMEM buffered with 20 mM HEPES, pH 7.4, supplemented with 100 µM Ro 20-1724 and 2 U/mL ADA, for 10 min at 37 °C. AC activity was stimulated using specific ligands for 15 min at 37 °C in a final volume of 250 µL. The reaction was stopped by adding 500 µL 0.1 M HCl in absolute ethanol. Once centrifuged at 12,000× g for 10 min, supernatants were evaporated in speed-vac and resuspended in 150 µL assay buffer (50 mM Tris-HCl, 4 mM EDTA). Fifty microliters of the sample were used to determine cAMP accumulation using protein kinase A as a cAMP binding protein and [^3H]cAMP as radioligand. A cAMP standard curve (0–16 pmol) was prepared in the same buffer. Incubation was stopped by rapid filtration through Whatman GF/B filters.

Where no end group is shown, it is not given here.

As for GSNKGAIIGLM [Aβ25-35], the CREB gene expression entry in the assay with CREB gene expression is “decrease”. Further, in the assay with mGluR5, the “mGluR5 density at the membrane level vs control value” was “twice over control value”. In addition, the mGluR5 gene expression result in assay [1] was “did not present any significant variation”. In addition, the “basal or forskolin-stimulated AC activity vs control neurons” value with adenylyl cyclase (AC) (25 µM, 24 h, 5 µM forskolin) is listed as “No differences”. The “basal AC activity” value in the assay with adenylyl cyclase (AC) (neurons exposed to 25 µM for 24 h) turned out to be 2.33 ± 0.55 pmol/mg/min.

The values above are taken from article PMC8234864, “Early Effects of the Soluble Amyloid β25-35 Peptide in Rat Cortical Neurons: Modulation of Signal Transduction Mediated by Adenosine and Group I Metabotropic Glutamate Receptors” (International Journal of Molecular Sciences, 2021).
